Assay [1] concerns E. faecalis (CL 4877). Nature of the assay: Zone of inhibition screen, 96 well agar array format. The class given is cell-based. Details: scale not given here. Conditions: zone of inhibition relative to 1 mg/ml stock solution of p-chlorobiphenylvancomycin. The method in brief:
(§1)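 Each compound was tested for antibacterial activity against a shared bacterial panel, with screening carried out on agar in a 96-well array.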

Assay [2] relates to S. aureus (ATCC 29213). The description is as above. The conditions noted are these: zone of inhibition relative to 1 mg/ml stock solution of p-chlorobiphenylvancomycin. It counts as cell-based. The arrangement: scale not given here. The method in brief: as §1
Assay [3] relates to S. Aureus ATCC 33591. Nature of the assay: MIC determination in BHI media, OD600. It counts as cell-based. Conditions: BHI + 0.1% casamino acids, 18 hours at 37° C., ≧90% OD600 inhibition. In short, it runs like this:
(§2)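 Log-phase bacteria were diluted to about 5×10^5 CFU/ml and exposed to test compounds serially diluted in DMSO. Following 18 hours at 37° C, growth was read by plate absorbance to assign the MIC.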

Assay [4] has as its system E. faecium ATCC 49624. Nature of the assay: MIC determination in BHI media, OD600. It counts as cell-based. Conditions: BHI + 0.1% casamino acids, 18 hours at 37° C., ≧90% OD600 inhibition. In short, it runs like this: as §2
In assay [5] the test system is E. faecalis ATCC 29212. Nature of the assay: MIC determination in BHI media, OD600. It counts as cell-based. Conditions: BHI + 0.1% casamino acids, 18 hours at 37° C., ≧90% OD600 inhibition. In short, it runs like this:
as §2

The subject of assay [6] is S aureus ATCC 29213. Nature of the assay: MIC determination in BHI media, OD600. It counts as cell-based. The conditions noted are these: BHI + 0.1% casamino acids, 18 hours at 37° C., ≧90% OD600 inhibition. In short, it runs like this:
as §2

The subject of assay [7] is E. faceium (ATCC 49624). Nature of the assay: Zone of inhibition screen, 96 well agar array format. The class given is cell-based, E. faecium. The conditions noted are these: zone of inhibition relative to 1 mg/ml stock solution of p-chlorobiphenylvancomycin. The method in brief:
as §1

From patent US6518243B1, “Desleucyl glycopeptide antibiotics and methods of making same” (Trustees of Princeton University, priority 1999, dated 2003) come the findings set out here.
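For zone score, E. faecium ATCC 49624 in this document: score 3 means fourfold and score 4 sixteenfold the reference zone size.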

As for `C[C@H]1O[C@H](O[C@H]2[C@H](Oc3c4cc5cc3Oc3ccc(cc3Cl)[C@@H](O)[C@@H](NC(=O)[C@@H](N)Cc3ccccc3)C(=O)N[C@@H](CC(N)=O)C(=O)N[C@H]5C(=O)N[C@H]3C(=O)N[C@H](C(=O)N[C@@H](C(=O)O)c5cc(O)cc(O)c5-c5cc3ccc5O)[C@H](O)c3ccc(c(Cl)c3)O4)O[C@H](CO)[C@@H](O)[C@@H]2O)C[C@@](C)(NCc2ccc(-c3ccc(Cl)cc3)cc2)[C@H]1O` [Compound 7], in assay [1], the “zone score, E. faecalis CL 4877” value came out at 2. Besides, in assay [2], the “zone score, S. aureus ATCC 29213” value was 2. Further, in assay [3], the MIC S. aureus ATCC 33591 was found to be 0.39 µg/mL. Besides, the MIC E. faecium ATCC 49624 in assay [4] turned out to be 0.12 µg/mL. In addition, the MIC E. faecalis ATCC 29212 in assay [5] is 0.78 µg/mL. The MIC S. aureus ATCC 29213 in assay [6] was 0.39 µg/mL.
Take `CC(C)[C@H](N)C(=O)N[C@H]1C(=O)N[C@@H](CC(N)=O)C(=O)N[C@H]2C(=O)N[C@H]3C(=O)N[C@H](C(=O)N[C@@H](C(=O)O)c4cc(O)cc(O)c4-c4cc3ccc4O)[C@H](O)c3ccc(c(Cl)c3)Oc3cc2cc(c3O[C@@H]2O[C@H](CO)[C@@H](O)[C@H](O)[C@H]2O[C@@H]2C[C@@](C)(NCc3ccc(-c4ccc(Cl)cc4)cc3)[C@@H](O)[C@@H](C)O2)Oc2ccc(cc2Cl)[C@H]1O` [Compound 20]: the “zone score, E. faecium ATCC 49624” value in assay [7] is recorded as 2. Also, the MIC S. aureus ATCC 33591 in assay [3] stood at 0.39 µg/mL. Moreover, the MIC E. faecium ATCC 49624 in assay [4] is 0.25 µg/mL. Moreover, the MIC E. faecalis ATCC 29212 in assay [5] was found to be 0.78 µg/mL. In addition, in assay [6], the MIC S. aureus ATCC 29213 is 0.25 µg/mL.
Regarding `CC(N)C(=O)NCC(=O)NC1C(=O)NC(CC(N)=O)C(=O)NC2C(=O)NC3C(=O)NC(C(=O)NC(C(=O)O)c4cc(O)cc(O)c4-c4cc3ccc4O)C(O)c3ccc(c(Cl)c3)Oc3cc2cc(c3OC2OC(CO)C(O)C(O)C2OC2CC(C)(NCc3ccc(-c4ccc(Cl)cc4)cc3)C(O)C(C)O2)Oc2ccc(cc2Cl)C1O` (centres unmarked) [Compound 36], the “zone score, E. faecium ATCC 49624” value in assay [7] was 2. Further, the MIC S. aureus ATCC 33591 in assay [3] worked out at 0.39 µg/mL. The MIC E. faecium ATCC 49624 in assay [4] was determined as 0.12 µg/mL. Also, the MIC E. faecalis ATCC 29212 in assay [5] worked out at 0.78 µg/mL. Further, the MIC S. aureus ATCC 29213 in assay [6] amounted to 0.39 µg/mL.
As to `CCCCC(N)C(=O)NC1C(=O)NC(CC(N)=O)C(=O)NC2C(=O)NC3C(=O)NC(C(=O)NC(C(=O)O)c4cc(O)cc(O)c4-c4cc3ccc4O)C(O)c3ccc(c(Cl)c3)Oc3cc2cc(c3OC2OC(CO)C(O)C(O)C2OC2CC(C)(NCc3ccc(-c4ccc(Cl)cc4)cc3)C(O)C(C)O2)Oc2ccc(cc2Cl)C1O` (centres unmarked) [Compound 42], the “zone score, E. faecium ATCC 49624” value in assay [7] was found to be 2. In assay [3], the MIC S. aureus ATCC 33591 stood at 0.39 µg/mL. In assay [4], the MIC E. faecium ATCC 49624 is 0.39 µg/mL. The MIC E. faecalis ATCC 29212 in assay [5] was 0.78 µg/mL. In addition, the MIC S. aureus ATCC 29213 in assay [6] came out at 0.39 µg/mL.
`CC(NCC(N)C(=O)NC1C(=O)NC(CC(N)=O)C(=O)NC2C(=O)NC3C(=O)NC(C(=O)NC(C(=O)O)c4cc(O)cc(O)c4-c4cc3ccc4O)C(O)c3ccc(c(Cl)c3)Oc3cc2cc(c3OC2OC(CO)C(O)C(O)C2OC2CC(C)(NCc3ccc(-c4ccc(Cl)cc4)cc3)C(O)C(C)O2)Oc2ccc(cc2Cl)C1O)=C1C(=O)CC(C)(C)CC1=O` (centres unmarked) [Compound 56]: the “zone score, E. faecium ATCC 49624” value in assay [7] is reported as 2. Further, in assay [3], the MIC S. aureus ATCC 33591 worked out at 0.25 µg/mL. Besides, the MIC E. faecium ATCC 49624 in assay [4] amounted to 0.12 µg/mL. The MIC E. faecalis ATCC 29212 in assay [5] is 0.78 µg/mL. Further, the MIC S. aureus ATCC 29213 in assay [6] came to 0.25 µg/mL.
Consider `CCOC(=O)NC(CC(N)=O)C(=O)NC1C(=O)NC(CC(N)=O)C(=O)NC2C(=O)NC3C(=O)NC(C(=O)NC(C(=O)O)c4cc(O)cc(O)c4-c4cc3ccc4O)C(O)c3ccc(c(Cl)c3)Oc3cc2cc(c3OC2OC(CO)C(O)C(O)C2OC2CC(C)(NCc3ccc(-c4ccc(Cl)cc4)cc3)C(O)C(C)O2)Oc2ccc(cc2Cl)C1O` (centres unmarked) [Compound 188], for which the “zone score, E. faecalis CL 4877” value in assay [1] came out at 2. The “zone score, S. aureus ATCC 29213” value in assay [2] turned out to be 2. Further, in assay [3], the MIC S. aureus ATCC 33591 was 0.39 µg/mL. Also, the MIC E. faecium ATCC 49624 in assay [4] is 0.062 µg/mL. Further, the MIC E. faecalis ATCC 29212 in assay [5] amounted to 0.39 µg/mL. Moreover, the MIC S. aureus ATCC 29213 in assay [6] worked out at 0.39 µg/mL.
